These results are taken from patent US12552811B2, “Immunosuppressant, and preparation method therefor and use thereof” (Abbisko Therapeutics Co., Ltd., priority 2020, dated 2026).

SMILES strings stand for the structures.

Data set [1] is described as follows: Jurkat reporter gene cellular assay. The format is cell-based. The following applies: Homo sapiens; Jurkat/NF-κB-luc/PD1 + Raji-PD-L1 coculture, OKT3 1 μg/mL, 6 hrs, activation fold; read-out: Cell Activity EC50. How it is done: The effect of compounds of the examples of the present invention and positive compounds on the interaction between PD-1 and PD-L1 expressed on cell surfaces, and the related influence on T cell functions, were determined by a Jurkat reporter gene cellular assay.
Briefly, the reporter gene plasmid of NF-κB-luc and the plasmid of human PD-1 were transfected into Jurkat cells to establish a stably transfected cell line capable of stably expressing both PD-1 and NF-κB-Luc reporter genes; the expression level of PD-1 on the cell surface was confirmed by flow cytometry; and the expression of the reporter gene was confirmed via the response of the reporter gene stimulated by OKT-3 and Raiji cells.
In addition, the plasmid of human PD-L1 was transfected into Raji cells to obtain a cell line capable of stably expressing PD-L1. Jurkat/NF-κB-luc/PD1 cells and Raji-PD-L1 cells were then cocultured and stimulated with OKT-3. On this basis, the compounds were added, and the enhancement of the signal pathway of T cell activation by the inhibitory effect of the compounds on the interaction between PD-1 and PD-L1 was evaluated by readings of reporter gene responses. The specific experimental process was as follows: • 1) 30 μL of compound or antibody solution was added to each well of a white 96-well plate (coming, 3610) at different diluted concentrations, and 10 μL of OKT3 (Biolegend, 317326) was then added (the final concentration of OKT3: 1 μg/mL); • 2) 20 μL of Raji-PD-L1 cell suspension was added to each well with 5*10^4 cells for each well, and was incubated in an incubator for 20 min: • 3) 20 μL of Jurkat/NF-κb-luc/PD-1 cell suspension was added to each well with 5*10^4 cells for each well, and well mixed, and 6 hrs later, Bright-glo (Promega, E2620) was applied and plates were read on Envision; • 4) The reading of each well treated with the compound was compared with the reading of each well treated with DMSO to obtain the activation fold of the compound; • 5) EC50 values of compounds and positive compounds of the examples of the present invention were determined by non-linear regression analysis of activation folds at different compound concentrations.
For orientation: In a reporter assay the amount or activity of a reporter protein is the signal.

The target in data set [2] is interaction between PD-1 and PD-L1 (Homo sapiens (Human), UniProt Q9NZQ7). Briefly: PD1-PDL1 HTRF binding activity test. The following applies: Cisbio PD-1/PD-L1 binding assay kit. On the procedure:
I. PD1-PDL1 HTRF Binding Activity Test
The effect of compounds of the examples of the present invention on the interaction between PD-1 and PD-L1 was determined by the PD-1/PD-L1 binding assay kit from Cisbio (#64ICP01PEG or 64ICP01PEH). The detailed experimental process was as follows: • 1) Pre-diluted compound solution, 4 μL of Tag1-PD-L1 and 4 μL of Tag2-PD1 were added to each well of a 384-well plate: • 2) After the mixture was incubated at room temperature for 15 min, 5 μL of anti-Tag1-Eu3+ antibody and 5 μL of anti-Tag2-XL665 antibody were then added; • 3) After incubated for 2 hrs at room temperature or overnight at 4° C., plates were read on Envision of Pelkin Elmer; and readings at 665 nm and 620 nm were recorded, and the ratio of the two readings was taken as a reading for each well; • 4) The reading of each well after compound treatment was compared with the reading of DMSO treated wells to obtain the percent inhibition of the compound; • 5) IC50 values of compounds and positive compounds of the examples of the present invention were determined by non-linear regression analysis of percent inhibition at different compound concentrations. II. Jurkat Reporter Gene Cellular Assay

Data set [3] is described as follows: Pharmacokinetic assay in mice. Format: in vivo. The following applies: male, mouse; ICR mice, PO 10 mg/kg, plasma. How it is done:
III. Pharmacokinetic Assay in Mice
The purpose of this study was to study the pharmacokinetic behaviors of some compounds of the present invention, and administration routes were: per oral administration (PO) to ICR mice at a dose of 10 mg/kg.
The compounds used in this test came from the compounds of the specific examples of the present invention.
ICR mice, male, N=3, with the original source of Shanghai Sippr-BK Laboratory Animal Co. Ltd.
2.3 Preparation and Administration of Drug
The compounds were weighed, and dissolved in a solvent of 0.5% SDS+0.5% CMCNa. The mixture solutions were mixed well by shaking and ultrasonic treatment to obtain colorless clear solutions. The solutions were orally administered to nine mice after an overnight fast. The dosage of administration was 10 mg/kg.
• 1) With about 90 μL/time point, blood was drawn from the submaxillary vein, and heparin sodium was added for anticoagulation. The blood samples were placed onto the ice, and were centrifuged (centrifugation conditions: 8000 r/min, 6 min, 2-8° C.) within 1 hr to obtain plasmas. • 2) The time points for blood sampling were at 0 hr, 0.25 hr, 0.5 hr, 1 hr, 2 hrs, 4 hrs, 6 hrs, 8 hrs and 24 hrs after administration. The samples were stored in a refrigerator at −20° C. • 3) 40 μL of plasma sample was added to 160 μL of cold acetonitrile containing an internal standard, and the mixture solution was vortexed for 3 min and centrifuged at 11,000 r/min for 5 min. • 4) 100 μL of supernate was taken and added to 100 μL of water, and 5 μL of the sample was taken and analyzed by LC/MS/MS.
The compounds from some representative examples of the present invention were administered and tested according to the above method, and their prototype compounds were detected.

Chain of interaction between PD-1 and PD-L1 (Q9NZQ7 19-238): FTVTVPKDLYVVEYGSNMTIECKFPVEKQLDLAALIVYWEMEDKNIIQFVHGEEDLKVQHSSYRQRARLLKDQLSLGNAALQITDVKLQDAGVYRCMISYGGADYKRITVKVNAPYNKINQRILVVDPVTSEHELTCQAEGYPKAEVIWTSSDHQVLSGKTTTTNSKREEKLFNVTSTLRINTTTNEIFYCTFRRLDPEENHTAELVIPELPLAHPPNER

In the case of `CCN1CCc2cc(C(=O)Nc3cccc(-c4cccc(NC(=O)c5nc6c(n5C)CCN(CCC57CCC(C(=O)O)(CC5)C7)C6)c4Cl)c3Cl)ncc2C1` [Example 3, 4-(2-(2-((2,2′-dichloro-3′-(7-ethyl-5,6,7,8-tetrahydro-2,7-naphthyridine-3-carboxamido)-[1,1′-biphenyl]-3-yl)carbamoyl)-1-methyl-1,4,6,7-tetrahydro-5H-imidazo[4,5-c]pyridin-5-yl)ethyl)bicyclo[2.2.1] heptane-1-carboxylic acid], in data set [1], the EC50 was 47.6 nM. The molecule also displayed an IC50 in data set [2] of 0.174 nM.
On the same counts, the results for `Cn1c(C(=O)Nc2cccc(-c3cccc(NC(=O)c4cc5c(cn4)CN(C4COC4)CC5)c3Cl)c2Cl)nc2c1CCN(CCC13CCC(C(=O)O)(CC1)C3)C2` [Example 11, 4-(2-(2-((2,2′-dichloro-3′-(7-(oxetan-3-yl)-5,6,7,8-tetrahydro-2,7-naphthyridine-3-carboxamido)-[1,1′-biphenyl]-3-yl)carbamoyl)-1-methyl-1,4,6,7-tetrahydro-5H-imidazo[4,5-c]pyridin-5-yl)ethyl)bicyclo [2.2.1]heptane-1-carboxylic acid] are 54.4 nM and 0.109 nM.
For `CC(C)N1CCc2cc(C(=O)Nc3cccc(-c4cccc(NC(=O)c5cc(C6CC6)c(CN6CCCC[C@H]6C(=O)O)cn5)c4Cl)c3Cl)ncc2C1` [Example 32, (S)-1-((4-cyclopropyl-6-((2,2′-dichloro-3′-(7-isopropyl-5,6,7,8-tetrahydro-2,7-naphthyridine-3-carboxamido)-[1,1′-biphenyl]-3-yl)carbamoyl)pyridin-3-yl)methyl)piperidine-2-carboxylic acid], in data set [1], the 50% effective concentration (EC50) stood at 25 nM. For the same molecule, in data set [3], the AUC(0-t) was 10200 ng·h/mL, the highest level (Cmax) was 2570 ng/mL, the MRT is 2.9 h and the Tmax came out at 0.5 h. Further, the half-life in data set [3] was 1.3 h.
For `CC(C)N1CCc2cc(C(=O)Nc3cccc(-c4cccc(NC(=O)c5ccc6c(n5)CN(CCC57CCC(C(=O)O)(CC5)C7)CC6)c4Cl)c3Cl)ncc2C1` [Example 68, 4-(2-(2-((2,2′-dichloro-3′-(7-isopropyl-5,6,7,8-tetrahydro-2,7-yridine-3-carboxamido)-[1,1′-biphenyl]-3-yl)carbamoyl)-5,8-dihydro-1,7-naphthyridin-7(6H)-yl)ethyl)bicyclo[2.2.1]heptane-1-carboxylic acid], the EC50 in data set [1] was found to be 178 nM.
Still for that read-out and setting: the figure for `CC(C)N1CCc2cc(C(=O)Nc3cccc(-c4cccc(NC(=O)c5ccc6c(n5)CCN(CCC57CCC(C(=O)O)(CC5)C7)C6)c4Cl)c3Cl)ncc2C1` [Example 69, 4-(2-(2-((2,2′-dichloro-3′-(7-isopropyl-5,6,7,8-tetrahydro-2,7-naphthyridine-3-carboxamido)-[1,1′-biphenyl]-3-yl)carbamoyl)-7,8-dihydro-1,6-naphthyridin-6(5H)-yl)ethyl)bicyclo[2.2.1]heptane-1-carboxylic acid] is 381 nM; for `C[C@@H](O)CN1CCc2cc(/C(F)=C/c3cccc(-c4cccc(Nc5nccc6cc(CN[C@H](CO)C(=O)O)cnc56)c4Cl)c3Cl)ncc2C1` [Example 70, ((8-((2,2′-dichloro-3′-((Z)-2-fluoro-2-(7-((R)-2-hydroxypropyl)-5,6,7,8-tetrahydro-2,7-naphthyridin-3-yl)vinyl)-[1,1′-biphenyl]-3-yl)amino)-1,7-naphthyridin-3-yl)methyl)-D-serine] it is 946 nM; for `CC(C)N1CCc2cc(/C(F)=C/c3cccc(-c4cccc(Nc5nccc6cc(CN[C@H](CO)C(=O)O)cnc56)c4Cl)c3Cl)ncc2C1` [Example 71, (Z)-((8-((2,2′-dichloro-3′-(2-fluoro-2-(7-isopropyl-5,6,7,8-tetrahydro-2,7-naphthyridin-3-yl)vinyl)-[1,1′-biphenyl]-3-yl)amino)-1,7-naphthyridin-3-yl)methyl)-D-serine] it is 772 nM.
`CCOC(=O)[C@@H](CO)NCc1cnc2c(Nc3cccc(-c4cccc(/C=C(\F)c5cc6c(cn5)CN(C[C@@H](C)O)CC6)c4Cl)c3Cl)nccc2c1` [Example 72, ethyl ((8-((2,2′-dichloro-3′-((Z)-2-fluoro-2-(7-((R)-2-hydroxypropyl)-5,6,7,8-tetrahydro-2,7-naphthyridin-3-yl)vinyl)-[1,1′-biphenyl]-3-yl)amino)-1,7-naphthyridin-3-yl)methyl)-D-serinate]: in data set [1], the EC50 stood at 1430 nM.
On the same count and under the same terms, to `CCOC(=O)[C@@H](CO)NCc1cnc2c(Nc3cccc(-c4cccc(/C=C(\F)c5cc6c(cn5)CN(C(C)C)CC6)c4Cl)c3Cl)nccc2c1` [Example 73, ethyl (Z)-((8-((2,2′-dichloro-3′-(2-fluoro-2-(7-isopropyl-5,6,7,8-tetrahydro-2,7-naphthyridin-3-yl)vinyl)-[1,1′-biphenyl]-3-yl)amino)-1,7-naphthyridin-3-yl)methyl)-D-serinate] belongs 7640 nM; to `Cc1c(/C=C(\F)c2cc3c(cn2)CN(CCC24CCC(C(=O)O)(CC2)C4)CC3)cccc1-c1cccc(Nc2nccc3cc(CNC[C@@H]4CCC(=O)N4)cnc23)c1C` [Example 74, (S,Z)-4-(2-(6-(2-(2,2′-dimethyl-3′-((3-((((5-oxopyrrolidin-2-yl)methyl)amino)methyl)-1,7-naphthyridin-8-yl)amino)-[1,1′-biphenyl]-3-yl)-1-fluorovinyl)-3,4-dihydro-2,7-naphthyridin-2(1H)-yl)ethyl)bicyclo [2.2.1]heptane-1-carboxylic acid], 1400 nM.
On the same count and under the same terms, the figure for `O=C1CC[C@@H](CNCc2cnc3c(Nc4cccc(-c5cccc(/C=C(\F)c6cc7c(cn6)CN(CCC68CCC(C(=O)O)(CC6)C8)CC7)c5Cl)c4Cl)nccc3c2)N1` [Example 75, (S,Z)-4-(2-(6-(2-(2,2′-dichloro-3′-((3-((((5-oxopyrrolidin-2-yl)methyl)amino)methyl)-1,7-naphthyridin-8-yl)amino)-[1,1′-biphenyl]-3-yl)-1-fluorovinyl)-3,4-dihydro-2,7-naphthyridin-2(1H)-yl)ethyl)bicyclo [2.2.1]heptane-1-carboxylic acid] is 1130 nM; for `O=C1CC[C@@H](CNCc2cnc3c(Nc4cccc(-c5cccc(NC(=O)c6cc7c(cn6)CN(CC68CCC(C(=O)O)(CC6)C8)CC7)c5Cl)c4Cl)nccc3c2)N1` [Example 78, (S)-4-((6-((2,2′-dichloro-3′-((3-((((5-oxopyrrolidin-2-yl)methyl)amino)methyl)-1,7-naphthyridin-8-yl)amino)-[1,1′-biphenyl]-3-yl)carbamoyl)-3,4-dihydro-2,7-naphthyridin-2(1H)-yl)methyl)bicyclo[2.2.1] heptane-1-carboxylic acid] it is 504 nM.

For orientation: EC50 means the concentration needed to bring the measured effect to its halfway point. The term IC50 denotes the concentration needed to halve the response being measured. What is called AUC(0-t) is exposure summed from dosing to a finite time, without extrapolation to infinity. A low value points to low exposure. Broadly, the Cmax is the maximum level reached in the sampled fluid or tissue. The MRT is the average time that molecules of a dose stay in the body. As usually defined, the Tmax is the time from dosing to the highest level. In general, half-life refers to how long it takes for the measured level to halve.
